One data set has as its target T1, human mGluR4 (hmGluR4) (Homo sapiens, UniProt Q14833).
T1 construct: expressed in transfected cells; host or cells: HEK-293 cells, transient co-transfection by electroporation
As to the kind of experiment: Calcium assay EC50 determination, positive allosteric modulator activity on hmGluR4 transiently over-expressed in HEK-293 cells. In kind it is cell-based. The conditions noted are these: PAM mode with EC20 glutamate; hmGluR4 in HEK-293 cells; intracellular calcium (Fluo4AM); read-out: mGluR4 positive allosteric modulator activity, half maximal effective concentration (EC50). The method in brief:
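HEK-293 cells transiently co-transfected with hmGluR4, chimeric G protein and glutamate transporters; Fluo4AM calcium read (ex 485/em 525 nm) on FLIPR Tetra. Compound alone 10 min for agonism, then EC20 glutamate with 3 min recording for PAM activity, versus buffer or EC20 glutamate basal.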
For orientation: A change in cytosolic calcium serves as a functional read-out for many receptors and channels.

pEC50: −log10 of the molar value. Values joined by “and” are separate entries in the source; they are usually repeats but may differ in a detail not shown here. Identical values can stand only once. Counter-ions that a name gives are not always drawn. Bounds are passed on as bounds.

T1 sequence (Q14833 33-912): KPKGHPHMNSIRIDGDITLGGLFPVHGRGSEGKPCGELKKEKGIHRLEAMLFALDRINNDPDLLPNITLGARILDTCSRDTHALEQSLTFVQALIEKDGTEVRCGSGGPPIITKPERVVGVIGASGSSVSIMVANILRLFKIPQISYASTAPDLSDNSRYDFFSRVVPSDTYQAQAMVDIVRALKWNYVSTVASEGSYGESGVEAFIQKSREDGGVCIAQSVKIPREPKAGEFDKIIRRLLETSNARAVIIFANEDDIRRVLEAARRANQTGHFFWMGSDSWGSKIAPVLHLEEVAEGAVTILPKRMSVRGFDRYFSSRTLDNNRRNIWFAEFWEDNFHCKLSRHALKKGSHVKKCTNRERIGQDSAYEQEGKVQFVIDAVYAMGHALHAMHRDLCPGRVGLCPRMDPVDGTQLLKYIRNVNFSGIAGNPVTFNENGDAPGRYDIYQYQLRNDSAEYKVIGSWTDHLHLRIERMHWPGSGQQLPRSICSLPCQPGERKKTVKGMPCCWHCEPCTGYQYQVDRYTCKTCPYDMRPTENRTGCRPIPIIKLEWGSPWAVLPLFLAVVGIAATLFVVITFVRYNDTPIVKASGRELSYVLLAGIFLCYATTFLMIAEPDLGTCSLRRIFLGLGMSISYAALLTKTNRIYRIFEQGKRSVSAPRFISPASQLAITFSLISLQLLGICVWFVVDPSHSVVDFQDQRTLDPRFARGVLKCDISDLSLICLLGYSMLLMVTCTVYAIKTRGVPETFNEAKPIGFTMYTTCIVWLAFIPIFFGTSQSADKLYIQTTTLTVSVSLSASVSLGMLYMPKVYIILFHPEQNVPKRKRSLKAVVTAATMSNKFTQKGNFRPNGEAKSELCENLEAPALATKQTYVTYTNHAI

As usually defined, the melting point is the temperature, or range, at which the solid turns liquid. With `Cc1cc(CCN2CCOCC2)nc2c(=O)[nH]c(-c3cc(C(F)(F)F)ccn3)nc12.Cl`, the melting point fell in the range of 168 to 173 °C.

Take `Cc1cccc(-c2nc3ccc(OCCCc4ccncc4)cc3c(=O)[nH]2)n1` (as salt: hydrochloride) [Compound 12, 2-(6-methyl-2-pyridyl)-6-[3-(4-pyridyl)propoxy]-3H-quinazolin-4-one dihydrochloride]: the melting point is above 250 °C.

In the case of `Cc1cnc(-c2nc3ccc(OCCCc4ccncc4)cc3c(=O)[nH]2)cn1` (as salt: hydrochloride) [Compound 13, 2-(5-methylpyrazin-2-yl)-6-[3-(4-pyridyl)propoxy]-3H-quinazolin-4-one dihydrochloride], the melting point is above 250 °C.

The compound `O=c1[nH]c(-c2cc(Cl)ccn2)nc2ccc(OCCCc3ccncc3)cc12` (as salt: hydrochloride) [Compound 15, 2-(4-chloro-2-pyridyl)-6-[3-(4-pyridyl)propoxy]-3H-quinazolin-4-one hydrochloride] returned a melting point of 232 to 241 °C.

In the case of `O=c1[nH]c(-c2cccc(C(F)(F)F)n2)nc2ccc(OCCCc3ccncc3)cc12` (as salt: hydrochloride) [Compound 17, 6-[3-(4-pyridyl)propoxy]-2-[6-(trifluoromethyl)-2-pyridyl]-3H-quinazolin-4-one hydrochloride], the melting point was 238 to 250 °C.

In turn, `O=c1[nH]c(-c2cc(C3CC3)ccn2)nc2ccc(OCCCc3ccncc3)cc12` (as salt: hydrochloride) [Compound 19, 2-(4-cyclopropyl-2-pyridyl)-6-[3-(4-pyridyl)propoxy]-3H-quinazolin-4-one dihydrochioride] yielded a melting point of 110 to 156 °C.

Compound `Cc1nc(-c2nc3ccc(OCCCc4ccncc4)cc3c(=O)[nH]2)co1` (as salt: hydrochloride) [Compound 22, 2-(2-Methyl-oxazol-4-yl)-6-(3-pyridin-4-yl-propoxy)-3H-quinazolin-4-one hydrochloride] returned a melting point above 250 °C.

`Cc1cc(CN2CCOCC2)cc2c(=O)[nH]c(-c3cc(C(F)(F)F)ccn3)nc12` (as salt: hydrochloride) [Compound 115, 8-methyl-6-(morpholinomethyl)-2-[4-(trifluoromethyl)-2-pyridyl]-3H-quinazolin-4-one hydrochloride] came in with a melting point above 250 °C.

For the compound `Cc1cc(CCN2CCOCC2)cc2c(=O)[nH]c(-c3cc(C(F)(F)F)ccn3)nc12` (as salt: hydrochloride) [Compound 117, 8-methyl-6-(2-morpholinoethyl)-2-[4-(trifluoromethyl)-2-pyridyl]-3H-quinazolin-4-one hydrochloride], the melting point was above 250 °C.

In turn, `Cc1cc(CCN2CCOCC2)cc2c(=O)[nH]c(-c3cc4cccn4cn3)nc12` (as salt: hydrochloride) [Compound 124, 8-Methyl-6-(2-morpholin-4-yl-ethyl)-2-pyrrolo[1,2-c]pyrimidin-3-yl-3H-quinazolin-4-one hydrochloride] registered a melting point above 250 °C.

The compound `Cc1cc(CN2CCN(C)CC2)cc2c(=O)[nH]c(-c3cc4ccsc4cn3)nc12` (as salt: hydrochloride) [Compound 132, 8-Methyl-6-[(4-methylpiperazin-1-yl)methyl]-2-thieno[2,3-c]pyridin-5-yl-3H-quinazolin-4-one dihydrochloride] showed a melting point above 250 °C.

`COC1CCN(Cc2cc(C)c3nc(-c4cc5sccc5cn4)[nH]c(=O)c3c2)CC1` (as salt: hydrochloride) [Compound 152, 6-[(4-Methoxy-1-piperidyl)methyl]-8-methyl-2-thieno[3,2-c]pyridin-6-yl-3H-quinazolin-4-one hydrochloride] had a melting point of 205 to 215 °C.

Take `Cc1cc(CN2CCOC(C)(C)C2)cc2c(=O)[nH]c(-c3cc4sccc4cn3)nc12` (as salt: hydrochloride) [Compound 153, 6-[(2,2-Dimethylmorpholin-4-yl)methyl]-8-methyl-2-thieno[3,2-c]pyridin-6-yl-3H-quinazolin-4-one hydrochloride]: the melting point was 220 to 240 °C.

On to `O=c1[nH]c(-c2cc(C(F)(F)F)ccn2)nc2c(Cl)cc(CCN3CCOCC3)cc12` (as salt: hydrochloride) [Compound 154, 8-Chloro-6-(2-morpholinoethyl)-2-(4-(trifluoromethyl)pyridin-2-yl)quinazolin-4(3H)-one hydrochloride], for which the melting point is above 250 °C.

`Cc1cc(CN2CCC(C(=O)N(C)C)CC2)cc2c(=O)[nH]c(-c3cc4sccc4cn3)nc12` (as salt: hydrochloride) [Compound 156, N,N-Dimethyl-14(8-methyl-4-oxo-2-(thieno[3,2-c]pyridin-6-yl)-3,4-dihydroquinazolin-6-yl)methyl)piperidine-4-carboxamide hydrochloride]: the melting point fell in the range of 215 to 230 °C.

In the case of `COCC1CCN(Cc2cc(C)c3nc(-c4cc5sccc5cn4)[nH]c(=O)c3c2)CC1` (as salt: hydrochloride) [Compound 157, 6-((4-(Methoxymethyl)piperidin-1-yl)methyl)-8-methyl-2-(thieno[3,2-c]pyridin-6-yl)quinazolin-4(3H)-one hydrochloride], the melting point fell in the range of 200 to 210 °C.

Take `O=c1[nH]c(-c2cc3cccn3cn2)nc2ccc(OCCCc3ccncc3)cc12` [Compound 1, 6-(3-pyridin-4-yl-propoxy)-2-pyrrolo[1,2-c]pyrimidin-3-yl-3H-quinazolin-4-one]: the melting point lay within 202 to 206 °C. Also, the pEC50 on human mGluR4 (hmGluR4) is 6.00 to 7.00.

Turning to `Cl.O=c1[nH]c(-c2cc3ccccc3cn2)nc2ccc(OCCCc3ccncc3)cc12` [Compound 2, 2-Isoquinolin-3-yl-6-(3-pyridin-4-yl-propoxy)-3H-quinazolin-4-one hydrochloride], the melting point was above 250 °C. Further, the pEC50 at human mGluR4 (hmGluR4) is 5.00 to 6.00.

`Cl.O=c1[nH]c(-c2cc3sccc3cn2)nc2ccc(OCCCc3ccncc3)cc12` [Compound 3, 6-(3-Pyridin-4-yl-propoxy)-2-thieno[3,2-c]pyridin-6-yl-3H-quinazolin-4-one hydrochloride] had a melting point above 250 °C. Moreover, on human mGluR4 (hmGluR4), the pEC50 was 6.00 to 7.00 and > 6.00.

As for `Cl.O=c1[nH]c(-c2cc3ccsc3cn2)nc2ccc(OCCCc3ccncc3)cc12` [Compound 4], the melting point was above 250 °C.

`Cl.O=c1[nH]c(-c2ccccn2)nc2ccc(OCCCc3ccncc3)cc12` [Compound 5, 2-Pyridin-2-yl-6-(3-pyridin-4-yl-propoxy)-3H-quinazolin-4-one hydrochloride]: the melting point is above 250 °C. Besides, the pEC50 on human mGluR4 (hmGluR4) is 6.00 to 7.00 and > 6.00.

The compound `COc1ccnc(-c2nc3ccc(OCCCc4ccncc4)cc3c(=O)[nH]2)c1.Cl` [Compound 7, 2-(4-methoxy-pyridin-2-yl)-6-(3-pyridin-4-yl-propoxy)-3H-quinazolin-4-one hydrochloride] had a melting point above 250 °C. Also, on human mGluR4 (hmGluR4), the pEC50 is 5.00 to 6.00.

As to `Cl.O=c1[nH]c(-c2ccc(F)cn2)nc2ccc(OCCCc3ccncc3)cc12` [Compound 8, 2-(5-Fluoro-pyridin-2-yl)-6-(3-pyridin-4-yl-propoxy)-3H-quinazolin-4-one hydrochloride], the melting point is above 250 °C. In addition, the pEC50 at human mGluR4 (hmGluR4) is 5.00 to 6.00.

Take `Cl.O=c1[nH]c(-c2cc(C(F)(F)F)ccn2)nc2ccc(OCCCc3ccncc3)cc12` [Compound 9, 6-(3-Pyridin-4-yl-propoxy)-2-(4-trifluoromethyl-pyridin-2-yl)-3H-quinazolin-4-one hydrochloride]: the melting point was in the range of 239 to 245 °C. The pEC50 on human mGluR4 (hmGluR4) was 6.00 to 7.00 and > 6.00.

For the compound `Cl.O=c1[nH]c(-c2ccc(C(F)(F)F)cn2)nc2ccc(OCCCc3ccncc3)cc12` [Compound 10, 6-[3-(4-pyridyl)propoxy]-2-[5-(trifluoromethyl)-2-pyridyl]-3H-quinazolin-4-one hydrochloride], the melting point is above 250 °C. Besides, the pEC50 at human mGluR4 (hmGluR4) is 6.00 to 7.00.

In the case of `COCCOc1ccc2nc(-c3cc4cccn4cn3)[nH]c(=O)c2c1` [Compound 34, 6-(2-Methoxy-ethoxy)-2-pyrrolo[1,2-c]pyrimidin-3-yl-3H-quinazolin-4-one], the melting point fell in the range of 181 to 187 °C. Besides, at human mGluR4 (hmGluR4), the pEC50 is below 5.00.

In turn, `Cl.O=c1[nH]c(-c2cc3sccc3cn2)nc2ccc(OCCN3CCOCC3)cc12` [Compound 35, 6-(2-Morpholin-4-yl-ethoxy)-2-thieno[3,2-c]pyridin-6-yl-3H-quinazolin-4-one hydrochloride] gave a melting point above 250 °C. For the same compound, the pEC50 on human mGluR4 (hmGluR4) is 5.00 to 6.00.

`COCCOc1ccc2nc(-c3cc4sccc4cn3)[nH]c(=O)c2c1` [Compound 36, 6-(2-Methoxy-ethoxy)-2-thieno[3,2-c]pyridin-6-yl-3H-quinazolin-4-one] registered a melting point of 209 to 213 °C. Further, the pEC50 on human mGluR4 (hmGluR4) was below 5.00.

Turning to `O=c1[nH]c(-c2cc(C(F)(F)F)ccn2)nc2c(Cl)cc(CCN3CCOCC3)cc12` [Compound 154, 8-Chloro-6-(2-morpholinoethyl)-2-(4-(trifluoromethyl)pyridin-2-yl)quinazolin-4(3H)-one hydrochloride], at human mGluR4 (hmGluR4), the pEC50 is 6.00 to 7.00.

For the compound `Cc1cc(CN2CCC(C(=O)N(C)C)CC2)cc2c(=O)[nH]c(-c3cc4sccc4cn3)nc12` [Compound 156, N,N-Dimethyl-14(8-methyl-4-oxo-2-(thieno[3,2-c]pyridin-6-yl)-3,4-dihydroquinazolin-6-yl)methyl)piperidine-4-carboxamide hydrochloride], at human mGluR4 (hmGluR4), the pEC50 is at least 7.00.

Turning to `COCC1CCN(Cc2cc(C)c3nc(-c4cc5sccc5cn4)[nH]c(=O)c3c2)CC1` [Compound 157, 6-((4-(Methoxymethyl)piperidin-1-yl)methyl)-8-methyl-2-(thieno[3,2-c]pyridin-6-yl)quinazolin-4(3H)-one hydrochloride], the pEC50 on human mGluR4 (hmGluR4) was 6.00 to 7.00.

The record behind these values is patent publication US20220089609A1, “SUBSTITUTED QUINAZOLINONE DERIVATIVES AND THEIR USE AS POSITIVE ALLOSTERIC MODULATORS OF MGLUR4” (DOMAIN THERAPEUTICS, priority 2018, published 2022).
